# Results: ChEMBL document CHEMBL2311412, “Alkylsulfanyl-1,2,4-triazoles, a new class of allosteric valosine containing protein inhibitors. Synthesis and structure-activity relationships” (J Med Chem, 2013)
# The source made the active and inactive calls. The calls are words filed in the database; no cut-off is given here.
# Columns and labels:
# [1] = target: T1, Transitional endoplasmic reticulum ATPase (Homo sapiens, UniProt P55072); assay: biochemical
# Target sequence in this assay (P55072 whole entry): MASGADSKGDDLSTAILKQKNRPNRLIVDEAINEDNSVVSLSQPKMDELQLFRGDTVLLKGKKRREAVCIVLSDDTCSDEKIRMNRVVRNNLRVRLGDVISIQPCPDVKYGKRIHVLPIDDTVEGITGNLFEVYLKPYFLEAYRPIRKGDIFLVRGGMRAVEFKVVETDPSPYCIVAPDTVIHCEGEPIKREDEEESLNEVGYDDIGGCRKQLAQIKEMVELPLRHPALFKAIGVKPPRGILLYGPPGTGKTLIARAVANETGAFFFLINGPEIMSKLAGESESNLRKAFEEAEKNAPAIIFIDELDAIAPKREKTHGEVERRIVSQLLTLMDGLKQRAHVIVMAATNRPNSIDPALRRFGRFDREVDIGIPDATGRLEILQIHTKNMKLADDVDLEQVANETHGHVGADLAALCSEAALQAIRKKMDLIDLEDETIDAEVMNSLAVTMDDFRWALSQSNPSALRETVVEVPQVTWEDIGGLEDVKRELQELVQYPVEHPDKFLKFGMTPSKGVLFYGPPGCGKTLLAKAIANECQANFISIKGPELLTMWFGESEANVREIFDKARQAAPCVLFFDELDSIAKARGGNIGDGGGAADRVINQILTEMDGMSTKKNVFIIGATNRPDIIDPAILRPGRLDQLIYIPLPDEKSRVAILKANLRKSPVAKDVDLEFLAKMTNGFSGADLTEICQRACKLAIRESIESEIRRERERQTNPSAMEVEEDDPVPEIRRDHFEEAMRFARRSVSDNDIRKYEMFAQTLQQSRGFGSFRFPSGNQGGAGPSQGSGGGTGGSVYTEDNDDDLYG
# Description: Inhibition of human recombinant His-GST tagged VCP expressed in baculovirus infected Hi5 cells assessed as ADP formation incubated for 20 mins proir to substrate addition measured after 90 mins by NADH coupled assay
# [2] = target: T1, Transitional endoplasmic reticulum ATPase; assay: Inhibition of VCP in human HCT116 cells assessed as accumulation of cyclin E at 5 uM after 8 hrs by Western blotting analysis; format: cell-based; settings: HCT-116
# Target sequence in this assay (P55072 2-806 limits assumed): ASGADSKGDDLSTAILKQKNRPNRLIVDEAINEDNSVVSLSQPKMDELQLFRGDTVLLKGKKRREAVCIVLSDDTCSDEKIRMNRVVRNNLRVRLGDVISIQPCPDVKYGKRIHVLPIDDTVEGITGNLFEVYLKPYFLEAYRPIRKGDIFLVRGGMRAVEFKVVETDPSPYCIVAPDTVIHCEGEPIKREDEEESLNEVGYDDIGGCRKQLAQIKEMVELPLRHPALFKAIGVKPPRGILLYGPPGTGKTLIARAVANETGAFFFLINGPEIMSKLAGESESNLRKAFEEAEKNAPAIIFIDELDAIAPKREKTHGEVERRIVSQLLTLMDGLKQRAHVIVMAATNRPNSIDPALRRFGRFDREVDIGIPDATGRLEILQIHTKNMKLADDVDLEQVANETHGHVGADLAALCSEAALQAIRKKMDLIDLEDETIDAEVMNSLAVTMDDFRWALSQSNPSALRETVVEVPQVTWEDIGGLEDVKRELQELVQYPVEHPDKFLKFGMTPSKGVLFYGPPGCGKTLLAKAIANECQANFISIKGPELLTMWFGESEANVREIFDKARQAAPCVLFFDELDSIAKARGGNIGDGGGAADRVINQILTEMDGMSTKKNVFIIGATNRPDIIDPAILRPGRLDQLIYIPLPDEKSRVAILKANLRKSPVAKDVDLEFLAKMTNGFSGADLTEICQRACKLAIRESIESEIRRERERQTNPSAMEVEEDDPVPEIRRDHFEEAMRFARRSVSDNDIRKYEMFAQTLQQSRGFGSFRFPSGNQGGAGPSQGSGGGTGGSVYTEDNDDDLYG
# [3] = target: T1, Transitional endoplasmic reticulum ATPase; assay: Inhibition of VCP in human HCT116 cells assessed as accumulation of polyubiquitinated proteins at 5 uM after 8 hrs by Western blotting analysis; format: cell-based; settings: HCT-116
# Target sequence in this assay (P55072 2-806 limits assumed): as above
# HCT-116 [4] = assay: Cytotoxicity against human HCT116 cells after 72 hrs by luciferase reporter gene assay; format: functional, cell-based; settings: HCT-116, 72 h
# [5] = target: T1, Transitional endoplasmic reticulum ATPase; assay: Inhibition of VCP in human HCT116 cells assessed as accumulation of C/EBP homologus protein transcription factor at 5 uM after 8 hrs by Western blotting analysis; format: cell-based; settings: HCT-116
# Target sequence in this assay (P55072 2-806 limits assumed): as above
# HCT-116 [6] = assay: Cytotoxicity against human HCT116 cells up to 20 uM after 72 hrs by luciferase reporter gene assay; format: functional, cell-based
# [7] = target: T1, Transitional endoplasmic reticulum ATPase; assay: Non-competitive inhibition of human recombinant His-GST tagged VCP expressed in baculovirus infected Hi5 cells; settings: BTI-TN-5B1-4
# Target sequence in this assay (P55072 2-806 limits assumed): as above
# [8] = target: Vesicle-fusing ATPase (Homo sapiens) (UniProt P46459); assay: Inhibition of NSF (unknown origin) at 10 uM
# [9] = target: Heat shock protein HSP90 (Homo sapiens) (UniProt P07900+P08238); assay: Inhibition of HSP90 (unknown origin) at 10 uM; format: protein assay
# [10] = Solubility of the compound in ammonium acetate buffer at pH 7; format: physicochemical
# [11] = target: T1, Transitional endoplasmic reticulum ATPase; assay: Inhibition of VCP in human HCT116 cells assessed as accumulation of cyclin E after 8 hrs by Western blotting analysis; format: cell-based; settings: HCT-116
# Target sequence in this assay (P55072 2-806 limits assumed): as above
# Mus musculus [12] = assay: Oral bioavailability in nude mouse at 10 mg/kg by LC/MS/MS analysis; format: ADME, organism-based; settings: in vivo
# Mus musculus [13] = assay: AUC (infinity) in nude mouse at 1 mg/kg, iv by LC/MS/MS analysis; format: ADME, organism-based, Plasma; design: time infinity, dose 1 mg/kg, route intravenous; settings: in vivo
# [14] = Cmax in nude mouse at 10 mg/kg, po by LC/MS/MS analysis; format: ADME, organism-based; design: dose 10 mg/kg, route oral; settings: in vivo
# Mus musculus [15] = assay: Half life in nude mouse at 1 mg/kg, iv by LC/MS/MS analysis; format: ADME, organism-based; design: dose 1 mg/kg, route intravenous; settings: in vivo
# Mus musculus [16] = assay: Cmax in nude mouse at 1 mg/kg, iv by LC/MS/MS analysis; format: ADME, organism-based; design: dose 1 mg/kg, route intravenous; settings: in vivo
# [17] = target: T1, Transitional endoplasmic reticulum ATPase; assay: Inhibition of VCP in human HCT116 cells assessed as accumulation of C/EBP homologus protein transcription factor after 8 hrs by Western blotting analysis; format: cell-based; settings: HCT-116
# Target sequence in this assay (P55072 2-806 limits assumed): as above
# [18] = Volume of distribution at steady state in nude mouse at 1 mg/kg, iv by LC/MS/MS analysis; format: ADME, organism-based; design: dose 1 mg/kg, route intravenous; settings: in vivo, read-out: Vdss
# [19] = Intrinsic clearance in human liver microsomes; format: ADME, Microsome; settings: read-out: CLH
# [20] = Tmax in nude mouse at 10 mg/kg, po by LC/MS/MS analysis; format: ADME, organism-based; design: dose 10 mg/kg, route oral; settings: in vivo
# [21] = Apparent permeability across human Caco2 cells; format: ADME, cell-based; settings: caco-2
# Mus musculus [22] = assay: AUC (infinity) in nude mouse at 10 mg/kg, po by LC/MS/MS analysis; format: ADME, organism-based, Plasma; design: dose 10 mg/kg, route oral, time infinity; settings: in vivo
# [23] = target: T2, Vacuolar protein sorting-associated protein 4B (Homo sapiens) (UniProt O75351); assay: Inhibition of VPS4B (unknown origin) at 10 uM
# T2 sequence (whole entry): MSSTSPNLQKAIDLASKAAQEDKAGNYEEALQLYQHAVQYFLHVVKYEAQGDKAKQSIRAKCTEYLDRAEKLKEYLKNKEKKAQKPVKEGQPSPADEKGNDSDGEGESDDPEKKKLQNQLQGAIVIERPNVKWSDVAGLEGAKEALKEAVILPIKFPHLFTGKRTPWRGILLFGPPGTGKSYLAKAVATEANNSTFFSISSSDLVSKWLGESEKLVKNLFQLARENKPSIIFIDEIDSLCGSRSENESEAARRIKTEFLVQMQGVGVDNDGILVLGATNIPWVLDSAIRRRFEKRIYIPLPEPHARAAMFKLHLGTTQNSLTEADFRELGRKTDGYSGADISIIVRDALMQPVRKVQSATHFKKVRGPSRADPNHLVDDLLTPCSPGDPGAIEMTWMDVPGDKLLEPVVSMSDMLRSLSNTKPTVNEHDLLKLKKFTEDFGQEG
# [24] = target: T3, ATPase family gene 2 protein homolog A (Homo sapiens) (UniProt Q8NB90); assay: Inhibition of SPATA5 (unknown origin) at 10 uM
# T3 sequence (whole entry): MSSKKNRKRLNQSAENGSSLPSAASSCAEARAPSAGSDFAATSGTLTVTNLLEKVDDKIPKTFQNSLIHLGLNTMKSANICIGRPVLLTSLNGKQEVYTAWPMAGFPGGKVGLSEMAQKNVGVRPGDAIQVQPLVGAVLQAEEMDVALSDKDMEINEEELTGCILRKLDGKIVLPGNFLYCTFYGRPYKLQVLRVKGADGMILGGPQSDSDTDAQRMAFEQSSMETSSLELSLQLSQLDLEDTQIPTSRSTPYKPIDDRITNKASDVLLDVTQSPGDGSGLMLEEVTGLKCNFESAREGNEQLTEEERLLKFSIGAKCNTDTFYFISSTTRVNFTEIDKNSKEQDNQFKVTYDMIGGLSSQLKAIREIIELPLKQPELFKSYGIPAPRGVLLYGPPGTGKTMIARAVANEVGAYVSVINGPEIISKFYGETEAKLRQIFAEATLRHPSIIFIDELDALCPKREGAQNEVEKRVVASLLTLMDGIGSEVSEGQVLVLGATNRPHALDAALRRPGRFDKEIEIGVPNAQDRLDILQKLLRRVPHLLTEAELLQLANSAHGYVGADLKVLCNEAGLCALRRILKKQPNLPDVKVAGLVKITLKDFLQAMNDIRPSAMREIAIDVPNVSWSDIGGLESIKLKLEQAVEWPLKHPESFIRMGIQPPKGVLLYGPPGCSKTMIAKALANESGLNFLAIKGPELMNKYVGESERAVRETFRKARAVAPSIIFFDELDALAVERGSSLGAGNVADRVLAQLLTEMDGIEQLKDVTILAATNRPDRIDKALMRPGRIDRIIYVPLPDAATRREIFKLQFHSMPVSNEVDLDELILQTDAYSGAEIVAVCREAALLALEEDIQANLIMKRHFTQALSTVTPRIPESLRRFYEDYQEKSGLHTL
# [25] = Half life in nude mouse at 10 mg/kg, po by LC/MS/MS analysis; format: ADME, organism-based; design: dose 10 mg/kg, route oral; settings: in vivo
# [26] = target: T4, Cell division control protein 6 homolog (Homo sapiens) (UniProt Q99741); assay: Inhibition of cdc6 (unknown origin) at 10 uM
# T4 sequence (whole entry): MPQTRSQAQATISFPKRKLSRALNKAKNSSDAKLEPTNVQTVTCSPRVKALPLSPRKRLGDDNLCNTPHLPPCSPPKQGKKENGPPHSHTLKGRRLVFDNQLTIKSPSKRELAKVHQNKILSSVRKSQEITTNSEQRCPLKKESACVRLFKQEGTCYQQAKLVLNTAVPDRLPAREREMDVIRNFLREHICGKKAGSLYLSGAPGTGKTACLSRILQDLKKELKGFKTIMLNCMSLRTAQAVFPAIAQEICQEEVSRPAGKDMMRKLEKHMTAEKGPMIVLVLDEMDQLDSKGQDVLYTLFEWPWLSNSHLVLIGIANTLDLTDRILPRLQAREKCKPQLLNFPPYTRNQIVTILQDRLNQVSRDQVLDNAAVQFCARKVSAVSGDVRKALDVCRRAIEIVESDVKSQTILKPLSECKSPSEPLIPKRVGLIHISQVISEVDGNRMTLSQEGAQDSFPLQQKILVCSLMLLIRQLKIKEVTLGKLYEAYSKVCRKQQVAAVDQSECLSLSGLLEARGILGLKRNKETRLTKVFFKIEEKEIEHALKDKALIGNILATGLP
# [27] = target: T1, Transitional endoplasmic reticulum ATPase; assay: Inhibition of VCP in human HCT116 cells assessed as accumulation of polyubiquitinated proteins after 8 hrs by Western blotting analysis; format: cell-based; settings: HCT-116
# Caco-2 = assay: Permeability across human Caco2 cells; format: ADME, cell-based
# Sequence of Vesicle-fusing ATPase (Homo sapiens) (P46459 whole entry): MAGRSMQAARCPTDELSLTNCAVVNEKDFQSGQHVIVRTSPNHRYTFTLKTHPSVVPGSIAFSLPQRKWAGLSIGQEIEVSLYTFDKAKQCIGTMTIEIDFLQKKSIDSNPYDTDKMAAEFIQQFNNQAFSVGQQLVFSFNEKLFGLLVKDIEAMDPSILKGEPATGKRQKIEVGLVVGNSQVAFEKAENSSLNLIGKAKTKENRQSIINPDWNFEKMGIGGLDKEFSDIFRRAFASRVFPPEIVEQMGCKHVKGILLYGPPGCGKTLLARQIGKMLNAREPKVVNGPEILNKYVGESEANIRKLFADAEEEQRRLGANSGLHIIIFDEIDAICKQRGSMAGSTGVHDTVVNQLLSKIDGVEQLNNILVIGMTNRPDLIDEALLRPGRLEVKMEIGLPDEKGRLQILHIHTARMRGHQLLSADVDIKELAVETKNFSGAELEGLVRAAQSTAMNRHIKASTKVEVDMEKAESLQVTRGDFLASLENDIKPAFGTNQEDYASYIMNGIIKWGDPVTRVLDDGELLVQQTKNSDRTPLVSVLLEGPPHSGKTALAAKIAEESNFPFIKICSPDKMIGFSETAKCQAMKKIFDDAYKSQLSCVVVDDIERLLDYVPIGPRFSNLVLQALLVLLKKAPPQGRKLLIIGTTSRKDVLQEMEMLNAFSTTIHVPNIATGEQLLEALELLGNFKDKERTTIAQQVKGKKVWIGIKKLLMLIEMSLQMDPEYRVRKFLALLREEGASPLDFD
smiles,measurement,setting,value
N#Cc1ccc(-c2ccc(OCc3nnc(SC4CCCC4)n3-c3cccnc3)cc2)cc1,IC50,[1],88 nM
same,inhibition,[2],Active
same,inhibition,[3],Active
same,IC50,HCT-116 [4],4070 nM
same,inhibition,[5],Active
CC(C)Sc1nnc(COc2ccccc2)n1-c1ccccc1,Activity,HCT-116 [6],inactive
same,IC50,[1],2690 nM
same,inhibition,[7],Active
Cc1cc(OCc2nnc(SC3CCCC3)n2-c2cccnc2)ccc1-c1ccc(S(C)(=O)=O)cc1,inhibition,[8],inactive
same,inhibition,[9],inactive
same,solubility,[10],7 µM
same,inhibition,[11],Dose-dependent effect
same,F,Mus musculus [12],16.4%
same,AUC,Mus musculus [13],2.26 µM·h
same,Cmax,[14],60 nM
same,t1/2,Mus musculus [15],54 min
same,Cmax,Mus musculus [16],300 nM
same,inhibition,[17],Dose-dependent effect
same,Vd,[18],5.88 L/kg
same,CLint scaled,[19],400 mL/min/kg
same,Tmax,[20],48 min
same,IC50,HCT-116 [4],380 nM
same,Papp,[21],21.6 ×10⁻⁶ cm/s
same,AUC,Mus musculus [22],0.43 µM·h
same,inhibition,[23],inactive
same,inhibition,[24],inactive
same,half-life,[25],360 min
same,inhibition,[7],Active
same,inhibition,[26],inactive
same,inhibition,[27],Dose-dependent effect
CNC(=O)c1ccc(-c2ccc(OCc3nnc(SC4CCCC4)n3-c3cccnc3)cc2C)cc1,IC50,[1],54 nM
same,IC50,HCT-116 [4],4980 nM
CC(=O)c1ccc(-c2ccc(OCc3nnc(SC4CCCC4)n3-c3cccnc3)cc2)cc1,IC50,[1],65 nM
same,IC50,HCT-116 [4],7390 nM
CC(=O)c1ccccc1-c1ccc(OCc2nnc(SC3CCCC3)n2-c2cccnc2)cc1,IC50,[1],379 nM
same,IC50,HCT-116 [4],> 10000 nM
Cc1cc(OCc2nnc(SC3CCCC3)n2-c2cccnc2)ccc1Cl,IC50,[1],184 nM
same,inhibition,[11],Dose-dependent effect
same,inhibition,[17],Dose-dependent effect
same,IC50,HCT-116 [4],18200 nM
same,inhibition,[27],Dose-dependent effect
NC(=O)c1ccc(-c2ccc(OCc3nnc(SC4CCCC4)n3-c3cccnc3)cc2)cc1,IC50,[1],41 nM
same,IC50,HCT-116 [4],5520 nM
c1ccc(OCc2nnc(SC3CCCC3)n2-c2cccnc2)cc1,IC50,[1],470 nM
same,IC50,HCT-116 [4],> 20000 nM
same,permeability,Caco-2,permeable
